Laboratory results from US5591714A, “Derivatives of A82846” (priority 1994, dated 1997).
Values after ≈ are worked out from the molar mass of the structure shown.

Columns and labels:
[1] = system: Enterococcus faecium X66; experiment: MIC, standard agar-dilution assay; assay type: cell-based
Protocol: (§1) The formula I compounds have in vitro and in vivo activity against Gram-positive pathogenic bacteria. The MIC's were determined using a standard agar-dilution assays.
^b Formerly Streptococcus faecium X66

[2] = system: Streptococcus pneumoniae; experiment: In vivo activity, experimentally infected mice (ED50); details: Streptococcus pneumoniae infection; doses administered subcutaneously to mice 1 and 4 hours postinfection
[3] = system: Streptococcus pyogenes; experiment: as above; details: Streptococcus pyogenes infection; doses administered subcutaneously to mice 1 and 4 hours postinfection
[4] = system: Enterococcus faecalis 2041; experiment: MIC, standard agar-dilution assay; assay type: cell-based
Protocol: as §1
^c Formerly Streptococcus faecalis 2041

[5] = system: Staphylococcus aureus; experiment: In vivo activity, experimentally infected mice (ED50); details: Staphylococcus aureus infection; doses administered subcutaneously to mice 1 and 4 hours postinfection
[6] = system: Streptococcus pyogenes C203; experiment: MIC, standard agar-dilution assay; assay type: cell-based
Protocol: as §1

[7] = system: Klebsiella pneumoniae KAE; experiment: MIC, standard agar-dilution assay; assay type: cell-based
Protocol: as §1

[8] = system: Haemophilus influenzae 76; experiment: MIC, standard agar-dilution assay; assay type: cell-based
Protocol: as §1

[9] = system: Staphylococcus aureus V41; experiment: MIC, standard agar-dilution assay; assay type: cell-based
Protocol: as §1

[10] = system: Haemophilus influenzae C.L.; experiment: MIC, standard agar-dilution assay; assay type: cell-based
Protocol: as §1

[11] = system: Staphylococcus epidermidis EPI270; experiment: MIC, standard agar-dilution assay; assay type: cell-based
Protocol: as §1

[12] = system: Klebsiella pneumoniae X68; experiment: MIC, standard agar-dilution assay; assay type: cell-based
Protocol: as §1

[13] = system: Staphylococcus aureus X400; experiment: MIC, standard agar-dilution assay; assay type: cell-based
Protocol: as §1

[14] = system: Escherichia coli TEM; experiment: MIC, standard agar-dilution assay; assay type: cell-based
Protocol: as §1

[15] = system: Staphylococcus epidermidis 222; experiment: MIC, standard agar-dilution assay; assay type: cell-based
Protocol: as §1

[16] = system: Escherichia coli EC14; experiment: MIC, standard agar-dilution assay; assay type: cell-based
Protocol: as §1

[17] = system: Klebsiella pneumoniae X26; experiment: MIC, standard agar-dilution assay; assay type: cell-based
Protocol: as §1

[18] = system: Escherichia coli N10; experiment: MIC, standard agar-dilution assay; assay type: cell-based
Protocol: as §1

[19] = system: Staphylococcus aureus NRRL X1.1; experiment: MIC, standard agar-dilution assay; assay type: cell-based
Protocol: as §1

[20] = system: Streptococcus pneumoniae Park 1; assay type: cell-based
Protocol: as §1

[21] = system: Staphylococcus aureus S13E; assay type: cell-based
Protocol: as §1

SMILES | MIC [1] | ED50 [2] | ED50 [3] | MIC [4] | MIC [6] | MIC [7] | MIC [8] | MIC [9] | MIC [10] | MIC [11] | MIC [12] | MIC [13] | MIC [14] | MIC [15] | MIC [16] | MIC [17] | MIC [18] | MIC [19] | MIC [20] | MIC [21] | also measured
CNC(CC(C)C)C(=O)NC1C(=O)NC(CC(N)=O)C(=O)NC2C(=O)NC3C(=O)NC(C(=O)NC(C(=O)O)c4cc(O)cc(O)c4-c4cc3ccc4O)C(OC3CC(C)(NCc4ccccc4)C(O)C(C)O3)c3ccc(cc3)Oc3cc2cc(c3O)Oc2ccc(cc2Cl)C1O (stereo not shown) [Compound 73] | 1 µg/mL (≈ 0.745 µM) | > 8.0 mg/kg/2 | 7.30 mg/kg/2 | 2 µg/mL (≈ 1.49 µM) | 1 µg/mL (≈ 0.745 µM) | > 128 µg/mL | > 64 µg/mL | 1 µg/mL (≈ 0.745 µM) | > 128 µg/mL | .25 µg/mL (≈ 0.186 µM) | > 128 µg/mL | 1 µg/mL (≈ 0.745 µM) | > 128 µg/mL | 2 µg/mL (≈ 1.49 µM) | > 128 µg/mL | > 128 µg/mL | > 128 µg/mL | 1 µg/mL (≈ 0.745 µM) | 1 µg/mL (≈ 0.745 µM) | 1 µg/mL (≈ 0.745 µM) | ED50 [5]: > 8.0 mg/kg/2
CCCCCCCCc1ccc(CNC2(C)CC(OC3C(Oc4c5cc6cc4Oc4ccc(cc4Cl)C(OC4CC(C)(N)C(O)C(C)O4)C4NC(=O)C(NC(=O)C6NC(=O)C(CC(N)=O)NC(=O)C(NC(=O)C(CC(C)C)NC)C(O)c6ccc(c(Cl)c6)O5)c5ccc(O)c(c5)-c5c(O)cc(O)cc5C(C(=O)O)NC4=O)OC(CO)C(O)C3O)OC(C)C2O)cc1 (stereo not shown) [Compound 54] | 64 µg/mL (≈ 35.7 µM) |  | 0.91 mg/kg/2 | 64 µg/mL (≈ 35.7 µM) | 8 µg/mL (≈ 4.46 µM) | > 128 µg/mL | > 128 µg/mL | 64 µg/mL (≈ 35.7 µM) | > 128 µg/mL | 64 µg/mL (≈ 35.7 µM) | > 128 µg/mL | 64 µg/mL (≈ 35.7 µM) | > 128 µg/mL | 64 µg/mL (≈ 35.7 µM) | > 128 µg/mL | > 128 µg/mL | > 128 µg/mL | 32 µg/mL (≈ 17.8 µM) | 4 µg/mL (≈ 2.23 µM) | 64 µg/mL (≈ 35.7 µM) | 
CN[C@H](CC(C)C)C(=O)N[C@H]1C(=O)N[C@@H](CC(N)=O)C(=O)N[C@H]2C(=O)N[C@H]3C(=O)N[C@H](C(=O)N[C@H](C(=O)O)c4cc(O)cc(O)c4-c4cc3ccc4O)[C@H](O[C@H]3C[C@](C)(NCc4ccc(Cl)cc4)[C@@H](O)[C@H](C)O3)c3ccc(cc3)Oc3cc2cc(c3O[C@@H]2O[C@H](CO)[C@@H](O)[C@H](O)[C@H]2O[C@H]2C[C@](C)(NCc3ccc(Cl)cc3)[C@@H](O)[C@H](C)O2)Oc2ccc(cc2Cl)[C@H]1O [Compound 23] | 4 µg/mL (≈ 2.21 µM) | 1.02 mg/kg/2 | 0.8 mg/kg/2 | 4 µg/mL (≈ 2.21 µM) | 2 µg/mL (≈ 1.11 µM) | > 128 µg/mL | > 128 µg/mL | 2 µg/mL (≈ 1.11 µM) | > 128 µg/mL | 2 µg/mL (≈ 1.11 µM) | > 128 µg/mL | 2 µg/mL (≈ 1.11 µM) | > 128 µg/mL | 1 µg/mL (≈ 0.553 µM) | > 128 µg/mL | > 128 µg/mL | > 128 µg/mL | 2 µg/mL (≈ 1.11 µM) | 1 µg/mL (≈ 0.553 µM) | 2 µg/mL (≈ 1.11 µM) | 
CN[C@H](CC(C)C)C(=O)N[C@H]1C(=O)N[C@@H](CC(N)=O)C(=O)N[C@H]2C(=O)N[C@H]3C(=O)N[C@H](C(=O)N[C@H](C(=O)O)c4cc(O)cc(O)c4-c4cc3ccc4O)[C@H](O[C@H]3C[C@](C)(NCc4ccc(Cl)cc4)[C@@H](O)[C@H](C)O3)c3ccc(cc3)Oc3cc2cc(c3O[C@@H]2O[C@H](CO)[C@@H](O)[C@H](O)[C@H]2O[C@H]2C[C@](C)(N)[C@@H](O)[C@H](C)O2)Oc2ccc(cc2Cl)[C@H]1O [Compound 21] | .5 µg/mL (≈ 0.297 µM) | 0.47 mg/kg/2 | 0.29 mg/kg/2 | .5 µg/mL (≈ 0.297 µM) | .5 µg/mL (≈ 0.297 µM) | > 128 µg/mL | > 128 µg/mL | .5 µg/mL (≈ 0.297 µM) | > 128 µg/mL | .5 µg/mL (≈ 0.297 µM) | > 128 µg/mL | .5 µg/mL (≈ 0.297 µM) | > 128 µg/mL | .25 µg/mL (≈ 0.149 µM) | > 128 µg/mL | > 128 µg/mL | > 128 µg/mL | .5 µg/mL (≈ 0.297 µM) | .5 µg/mL (≈ 0.297 µM) | .25 µg/mL (≈ 0.149 µM) | 
CCCCCNC1(C)CC(OC2c3ccc(cc3)Oc3cc4cc(c3O)Oc3ccc(cc3Cl)C(O)C(NC(=O)C(CC(C)C)NC)C(=O)NC(CC(N)=O)C(=O)NC4C(=O)NC3C(=O)NC2C(=O)NC(C(=O)O)c2cc(O)cc(O)c2-c2cc3ccc2O)OC(C)C1O (stereo not shown) [Compound 74] | 8 µg/mL (≈ 6.05 µM) |  |  | 8 µg/mL (≈ 6.05 µM) | 4 µg/mL (≈ 3.02 µM) | > 128 µg/mL | > 128 µg/mL | 4 µg/mL (≈ 3.02 µM) | > 128 µg/mL | 2 µg/mL (≈ 1.51 µM) | > 128 µg/mL | 4 µg/mL (≈ 3.02 µM) | > 128 µg/mL | 4 µg/mL (≈ 3.02 µM) | > 128 µg/mL | > 128 µg/mL | > 128 µg/mL | 4 µg/mL (≈ 3.02 µM) | 4 µg/mL (≈ 3.02 µM) | 4 µg/mL (≈ 3.02 µM) | 
CCCCCCCCOc1ccc(CNC2(C)CC(OC3C(Oc4c5cc6cc4Oc4ccc(cc4Cl)C(OC4CC(C)(N)C(O)C(C)O4)C4NC(=O)C(NC(=O)C6NC(=O)C(CC(N)=O)NC(=O)C(NC(=O)C(CC(C)C)NC)C(O)c6ccc(c(Cl)c6)O5)c5ccc(O)c(c5)-c5c(O)cc(O)cc5C(C(=O)O)NC4=O)OC(CO)C(O)C3O)OC(C)C2O)cc1 (stereo not shown) [Compound 55] | 8 µg/mL (≈ 4.42 µM) |  | 0.73 mg/kg/2 | 8 µg/mL (≈ 4.42 µM) | 4 µg/mL (≈ 2.21 µM) | > 128 µg/mL | > 128 µg/mL | 4 µg/mL (≈ 2.21 µM) | > 128 µg/mL | 16 µg/mL (≈ 8.84 µM) | > 128 µg/mL | 16 µg/mL (≈ 8.84 µM) | > 128 µg/mL | 8 µg/mL (≈ 4.42 µM) | > 128 µg/mL | > 128 µg/mL | > 128 µg/mL | 8 µg/mL (≈ 4.42 µM) | 2 µg/mL (≈ 1.1 µM) | 8 µg/mL (≈ 4.42 µM) | 
CCCCCCC(=O)NC1(C)CC(OC2c3ccc(c(Cl)c3)Oc3cc4cc(c3OC3OC(CO)C(O)C(O)C3OC3CC(C)(N)C(O)C(C)O3)Oc3ccc(cc3Cl)C(O)C(NC(=O)C(CC(C)C)NC)C(=O)NC(CC(N)=O)C(=O)NC4C(=O)NC3C(=O)NC2C(=O)NC(C(=O)O)c2cc(O)cc(O)c2-c2cc3ccc2O)OC(C)C1O (stereo not shown) [Compound 69] | 2 µg/mL (≈ 1.17 µM) |  | < 0.62 mg/kg/2 | 1 µg/mL (≈ 0.587 µM) | 1 µg/mL (≈ 0.587 µM) | > 128 µg/mL | > 128 µg/mL | 2 µg/mL (≈ 1.17 µM) | > 128 µg/mL | 8 µg/mL (≈ 4.69 µM) | > 128 µg/mL | 4 µg/mL (≈ 2.35 µM) | > 128 µg/mL | 2 µg/mL (≈ 1.17 µM) | > 128 µg/mL | > 128 µg/mL | > 128 µg/mL | 1 µg/mL (≈ 0.587 µM) | .5 µg/mL (≈ 0.293 µM) | 2 µg/mL (≈ 1.17 µM) | 
CCCCCNC1(C)CC(OC2c3ccc(c(Cl)c3)Oc3cc4cc(c3OC3OC(CO)C(O)C(O)C3O)Oc3ccc(cc3Cl)C(O)C(NC(=O)C(CC(C)C)NC)C(=O)NC(CC(N)=O)C(=O)NC4C(=O)NC3C(=O)NC2C(=O)NC(C(=O)O)c2cc(O)cc(O)c2-c2cc3ccc2O)OC(C)C1O (stereo not shown) [Compound 77] | 2 µg/mL (≈ 1.32 µM) |  |  | 2 µg/mL (≈ 1.32 µM) | .25 µg/mL (≈ 0.165 µM) | > 128 µg/mL | 128 µg/mL (≈ 84.2 µM) | .5 µg/mL (≈ 0.329 µM) | 128 µg/mL (≈ 84.2 µM) | 8 µg/mL (≈ 5.27 µM) | > 128 µg/mL | 1 µg/mL (≈ 0.658 µM) | > 128 µg/mL | 1 µg/mL (≈ 0.658 µM) | > 128 µg/mL | > 128 µg/mL | > 128 µg/mL | .5 µg/mL (≈ 0.329 µM) | .5 µg/mL (≈ 0.329 µM) | .5 µg/mL (≈ 0.329 µM) | 
